Counter-ions that a name gives are not always drawn.
Molecular target: T1, G9a (Homo sapiens, UniProt Q96KQ7)
T1 sequence (Q96KQ7 1-1210): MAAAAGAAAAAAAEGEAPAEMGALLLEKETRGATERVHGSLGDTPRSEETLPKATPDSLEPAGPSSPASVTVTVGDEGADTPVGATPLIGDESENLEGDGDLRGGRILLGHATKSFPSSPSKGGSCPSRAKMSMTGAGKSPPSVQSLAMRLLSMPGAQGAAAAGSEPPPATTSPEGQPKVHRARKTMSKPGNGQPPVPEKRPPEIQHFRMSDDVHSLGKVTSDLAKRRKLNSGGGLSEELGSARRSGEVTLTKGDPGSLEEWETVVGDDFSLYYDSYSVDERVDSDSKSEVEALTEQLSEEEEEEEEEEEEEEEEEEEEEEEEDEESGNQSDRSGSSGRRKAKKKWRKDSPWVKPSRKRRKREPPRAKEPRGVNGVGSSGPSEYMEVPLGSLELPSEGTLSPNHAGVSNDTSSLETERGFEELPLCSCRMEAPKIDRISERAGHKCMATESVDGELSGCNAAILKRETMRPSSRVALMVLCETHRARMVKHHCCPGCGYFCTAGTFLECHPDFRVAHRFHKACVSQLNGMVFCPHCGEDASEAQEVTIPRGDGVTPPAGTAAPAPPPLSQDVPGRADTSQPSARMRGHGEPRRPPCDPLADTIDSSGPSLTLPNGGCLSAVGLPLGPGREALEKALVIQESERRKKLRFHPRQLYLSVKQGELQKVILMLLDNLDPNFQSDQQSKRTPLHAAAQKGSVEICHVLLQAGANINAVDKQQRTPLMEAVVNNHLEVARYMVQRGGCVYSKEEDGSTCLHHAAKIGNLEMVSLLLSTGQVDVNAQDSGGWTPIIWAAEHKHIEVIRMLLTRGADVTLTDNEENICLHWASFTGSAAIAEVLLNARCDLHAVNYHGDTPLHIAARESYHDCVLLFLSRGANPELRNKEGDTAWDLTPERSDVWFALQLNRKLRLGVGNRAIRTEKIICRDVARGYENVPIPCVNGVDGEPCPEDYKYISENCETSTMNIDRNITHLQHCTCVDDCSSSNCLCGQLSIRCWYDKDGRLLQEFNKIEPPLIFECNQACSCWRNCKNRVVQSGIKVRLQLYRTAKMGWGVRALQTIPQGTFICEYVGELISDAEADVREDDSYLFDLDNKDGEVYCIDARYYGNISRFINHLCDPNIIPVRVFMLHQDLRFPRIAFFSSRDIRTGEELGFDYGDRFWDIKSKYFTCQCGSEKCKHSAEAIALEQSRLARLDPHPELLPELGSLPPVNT
Assay: G9a AlphaLISA enzymatic activity assay
Type: biochemical
Conditions: 0.15 nM G9a, 10 uM S-adenosyl-methionine, 100 nM biotinylated histone 3 peptide (1-21), 1 h room temperature
From the text: The G9a AlphaLISA assay was used to detect the methyl modifications of a biotinylated histone H3 peptide by the compounds. These modifications are done by the histone methyl transferase activity of the G9a enzyme. The assay consists of reading a chemiluminescent signal at 615 nm; this signal is generated by a laser excitation at 680 nm that transfers a reactive singlet oxygen between the donor beads and acceptor beads. Donor beads are streptavidin conjugated and bind to the biotin on the peptide. Acceptor beads are conjugated with an antibody that recognizes the specific G9a methyl mark on the peptide. If there is a methyl mark on the peptide, the acceptor beads will bind to the peptide. Upon binding, the acceptor beads will be in close proximity (<200 nm) of the donor beads and when the donor beads are excited, the transfer of the oxygen can occur and a strong signal will be generated. If there is no methyl mark, the interaction between beads will not occur and signal will be at background levels.
For the assay, the following buffer was used to set up reactions: 50 mM Tris-HCl pH9, 50 mM NaCl, 0.01% Tween-20 and 1 mM DTT (added fresh prior to starting the reactions). The assay is set up by adding a final concentration of 0.15 nM G9a, 10 uM S-adenosyl-methionine and, 100 nM biotinylated histone 3 peptide (1-21). The reaction is incubated at room temperature for 1 h, and subsequently quenched by the addition of the acceptor beads (anti-H3k9me2 AlphaLISA acceptor beads, PerkinElmer #AL117) at a final concentration of 20 ug/mL. The acceptor beads are incubated for 1 h. After 1 h, the donor beads are added at a final concentration of 20 ug/mL (Alpha Streptavidin donor beads, PerkinElmer #6760002). Donor beads are incubated for 0.5 h. Both donor and acceptor beads are resuspended in AlphaLISA 5× Epigenetics Buffer 1 Kit (PerkinElmer #AL008) prior to addition to the reaction. All manipulations and incubations with the donor and acceptor beads are done in subdued light. Signal is detected in an EnVision plate reader in Alpha mode (See ACS Med Chem Lett. 2014 Jan. 2; 5(2):205-9)
Percent inhibition was calculated for each compound dilution and the concentration that produced 50% inhibition was calculated. This value is presented as the IC50.

IC50 | Compound
3.2 nM | COc1cc2c(cc1OCCCN1CCCC1)[nH]c1ccncc12 [Compound 6, 1-[3-({8-methoxy-5H-pyrido[4,3-b]indol-7-yl}oxy)propyl]pyrrolidine]
280 nM | COc1cc2c(cc1OCCCN1CCCC1)[nH]c1ncccc12 [Compound 7, 1-[3-({6-methoxy-9H-pyrido[2,3-b]indol-7-yl}oxy)propyl]pyrrolidine]
5.3 nM | COc1cc2c(cc1OCCCN1CCCC1)[nH]c1cc(N)ncc12 [Compound 8, 8-methoxy-7-[3-(pyrrolidin-1-yl)propoxy]-5H-pyrido[4,3-b]indol-3-amine]
590 nM | COc1cc2c(cc1OCCCN1CCCC1)[nH]c1ccnc(F)c12 [Compound 9, 1-[3-({1-fluoro-8-methoxy-5H-pyrido[4,3-b]indol-7-yl}oxy)propyl]pyrrolidine]
4.5 nM | COc1cc2c(cc1OCCCN1CCCC1)[nH]c1cc(N)nc(C)c12 [Compound 10, 8-methoxy-1-methyl-7-[3-(pyrrolidin-1-yl)propoxy]-5H-pyrido[4,3-b]indol-3-amine]
8.2 nM | COc1cc2c(cc1OCCCN1CCCC1)[nH]c1ccnc(N3CC[C@H](O)C3)c12 [Compound 11, (3S)-1-{8-methoxy-7-[3-(pyrrolidin-1-yl)propoxy]-5H-pyrido[4,3-b]indol-1-yl}pyrrolidin-3-ol]
1 to 3 nM | COc1cc2c(cc1OCCCN1CCCC1)[nH]c1ccnc(C3CC3)c12 [Compound 12, 1-[3-({1-cyclopropyl-8-methoxy-5H-pyrido[4,3-b]indol-7-yl}oxy)propyl]pyrrolidine]
34 nM | COc1cc2c(cc1OCCCN1CCCC1)[nH]c1ccnc(N3CC[C@@H](O)C3)c12 [Compound 13, (3R)-1-{8-methoxy-7-[3-(pyrrolidin-1-yl)propoxy]-5H-pyrido[4,3-b]indol-1-yl}pyrrolidin-3-ol]
6.5 nM | COC[C@H](C)Nc1nccc2[nH]c3cc(OCCCN4CCCC4)c(OC)cc3c12 [Compound 14, 8-methoxy-N-[(2S)-1-methoxypropan-2-yl]-7-[3-(pyrrolidin-1-yl)propoxy]-5H-pyrido[4,3-b]indol-1-amine]
3.3 nM | COc1cc2c(cc1OCCCN1CCCC1)[nH]c1ccnc(N3CCCC3)c12 [Compound 15, 1-{8-methoxy-7-[3-(pyrrolidin-1-yl)propoxy]-5H-pyrido[4,3-b]indol-1-yl}pyrrolidine]
61 nM | COc1cc2c(cc1OCCCN1CCCC1)[nH]c1ccnc(N3CCC(O)CC3)c12 [Compound 16, 1-{8-methoxy-7-[3-(pyrrolidin-1-yl)propoxy]-5H-pyrido[4,3-b]indol-1-yl}piperidin-4-ol]
370 nM | COc1cc2c(cc1OCCCN1CCCC1)[nH]c1ccnc(N3CCOCC3)c12 [Compound 17, 4-{8-methoxy-7-[3-(pyrrolidin-1-yl)propoxy]-5H-pyrido[4,3-b]indol-1-yl}morpholine]
12 nM | COc1cc2c(cc1OCCCN1CCCC1)[nH]c1ccnc(N3CC(O)C3)c12 [Compound 18, 1-{8-methoxy-7-[3-(pyrrolidin-1-yl)propoxy]-5H-pyrido[4,3-b]indol-1-yl}azelidin-3-ol]
300 nM | COc1cc2c(cc1OCCCN1CCCC1)[nH]c1ccnc(N3CC4CCC(C3)O4)c12 [Compound 19, 3-{8-methoxy-7-[3-(pyrrolidin-1-yl)propoxy]-5H-pyrido[4,3-b]indol-1-yl}-8-oxa-3-azabicyclo[3.2.1]octane]
7 nM | CCOCCNc1nccc2[nH]c3cc(OCCCN4CCCC4)c(OC)cc3c12 [Compound 20, N-(2-ethoxyethyl)-8-methoxy-7-[3-(pyrrolidin-1-yl)propoxy]-5H-pyrido[4,3-b]indol-1-amine]
3.3 nM | CCCc1nccc2[nH]c3cc(OCCCN4CCCC4)c(OC)cc3c12 [Compound 21, 1-[3-({8-methoxy-1-propyl-5H-pyrido[4,3-b]indol-7-yl}oxy)-propyl]pyrrolidine]
570 nM | COc1cc2c(cc1OCCCN1CCCC1)[nH]c1ncncc12 [Compound 22, 1-[3-({6-methoxy-9H-pyrimido-[4,5-b]indol-7-yl}oxy)propyl]-pyrrolidine]
100 nM | COc1cc2c(cc1OCCCN1CCCC1)[nH]c1ccnc(-c3ccncc3)c12 [Compound 23, 8-methoxy-1-(pyridin-4-yl)-7-(3-(pyrrolidin-1-yl)propoxy)-5H-pyrido[4,3-b]indole]
93 nM | COc1cc2c(cc1OCCCN1CCCC1)[nH]c1ccnc(-c3cccnc3)c12 [Compound 24, 8-methoxy-1-(pyridin-3-yl)-7-(3-(pyrrolidin-1-yl)propoxy)-5H-pyrido[4,3-b]indole]
140 nM | COc1cc2c(cc1OCCCN1CCCC1)[nH]c1ccnc(-c3ccccn3)c12 [Compound 25, 8-methoxy-1-(pyridin-2-yl)-7-(3-(pyrrolidin-1-yl)propoxy)-5H-pyrido[4,3-b]indole]
250 nM | COc1c(OCCCN2CCCC2)ccc2c1[nH]c1cccnc12 [Compound 26, 1-[3-({6-methoxy-5H-pyrido[3,2-b]indol-7-yl}oxy)propyl]pyrrolidine hydrochloride]
150 nM | COc1cc2c(cc1OCCCN1CCCC1)[nH]c1cccnc12 [Compound 27, 1-[3-({8-methoxy-5H-pyrido[3,2-b]indol-7-yl}oxy)propyl]pyrrolidine hydrochloride]
60 nM | COc1cc2c(cc1OCCCN1CCCC1)[nH]c1cnccc12 [Compound 28, 1-[3-({6-methoxy-9H-pyrido[3,4-b]indol-7-yl}oxy)propyl]pyrrolidine hydrochloride]
1.2 nM | COc1cc2c(cc1OCCCN1CCCC1)[nH]c1ccnc(C)c12 [Compound 29, 1-[3-({8-methoxy-1-methyl-5H-pyrido[4,3-b]indol-7-yl}oxy)propyl]pyrrolidine hydrochloride]
3.6 nM | COc1cc2c(cc1OCCCN1CCCC1)[nH]c1ccncc12 [Compound 31, 1-[3-({8-methoxy-5H-pyrido[4,3-b]indol-7-yl}oxy)propyl]pyrrolidine hydrochloride]
320 nM | COc1cc2c(cc1OCCCN1CCCC1)[nH]c1nc(N)ccc12 [Compound 33, 6-methoxy-7-[3-(pyrrolidin-1-yl)propoxy]-9H-pyrido[2,3-b]indol-2-amine hydrochloride]
5.7 nM | COc1cc2c(cc1OCCCN1CCCC1)[nH]c1ccnc(N3CCCC3)c12 [Compound 39, 1-{8-methoxy-7-[3-(pyrrolidin-1-yl)propoxy]-5H-pyrido[4,3-b]indol-1-yl}pyrrolidine]
1.3 nM | COc1cc2c(cc1OCCCN1CCCC1)[nH]c1ccnc(C3CC3)c12 [Compound 43, 1-[3-({1-cyclopropyl-8-methoxy-5H-pyrido[4,3-b]indol-7-yl}oxy)propyl]pyrrolidine]
170 nM | COc1cc2c(cc1OCCCN1CCCC1)[nH]c1cncnc12 [Compound 44, 1-[3-({8-methoxy-5H-pyrimido[5,4-b]indol-7-yl}oxy)propyl]pyrrolidine]

From patent publication US11111243B2, “Azaindole compounds as histone methyltransferase inhibitors” (GLOBAL BLOOD THERAPEUTICS, INC., priority 2017, dated 2021)
